# Measured values taken from patent US20170224654A1, “PHARMACEUTICAL COMPOSITIONS AND METHODS FOR COUNTERING CHEMOTHERAPY INDUCED CARDIOTOXICITY” (Stem Cell Theranostics, Inc., priority 2016, published 2017).
# Legend:
# in vitro = settings: human
# C57BL/6 mice = experiment: Acute anthracycline-induced cardiotoxicity model, echocardiography; assay type: in vivo; settings: Doxorubicin 20 mg/kg single intraperitoneal injection, day 5
# Source text: An acute anthracycline-induced cardiotoxicity model was established in 9-10 week old C57BL/6 mice obtained from The Jackson Laboratory. […] General health of the animals was monitored on a daily basis throughout the course of the study. […] Left ventricular (LV) M-mode images were obtained in the two-dimensional short axis view close to the papillary muscles. Tracings of endocardial tissue during systole and diastole were made off line.
# [1] = tested on: Human iPSC-derived cardiomyocytes; experiment: DOX-induced contractility dysfunction (Pulse videos), 48 hours; assay type: cell-based
# [2] = tested on: human induced pluripotent stem cell-derived cardiomyocytes; experiment: Electrophysiological activity with doxorubicin (active electrodes, MEA); assay type: cell-based; settings: 1 μM doxorubicin, in the absence of vitexin
# Protocol: Samples were either mock-treated with 0.1% DMSO, treated with 1 μM doxorubicin, or co-treated with 1 μM doxorubicin and various concentrations of vitexin (e.g., 11.6 μM, 37 μM, or 116 μM). Following treatment, the percentage of active electrodes in each sample was measured for 72 hours. Percentage of active electrodes was quantified and graphed in a time course (FIG. 28A). The average number of active electrodes per well was quantified and graphed at 30 hours after the treatment (FIG. 28B, n=6, standard deviation is shown as error bars).
# TOPOIIβ mRNA expression = experiment: mRNA expression level in cardiomyocytes; assay type: cell-based
# [3] = tested on: human induced pluripotent stem cell-derived cardiomyocytes; experiment: Long-term mitochondrial health (TMRM), 7 days; assay type: cell-based; settings: 1 μM doxorubicin alone or with dexrazoxane or vitexin
# Protocol: Following treatment, the samples were incubated with a tetramethylrhodamine methyl ester (TMRM) dye to indicate mitochondrial health. […] Representative images are presented for each sample, wherein loss of TMRM signal represents mitochondrial toxicity.
# TOPOIIα mRNA expression = experiment: mRNA expression level in cardiomyocytes; assay type: cell-based
# [4] = tested on: induced pluripotent stem cell-derived cardiomyocytes; experiment: Acute toxicity on electrophysiology (MEA beat period, field potential duration); assay type: cell-based; settings: for acute drug toxicity (beating): higher concentrations; for beat period or field potential duration, as compared to control samples: lower drug concentration, at least 20 minutes
# Protocol: Samples were either mock-treated with 0.1% DMSO, or treated with increasing concentrations of the indicated drug for at least 20 minutes. Cardiomyocytes were treated with the hERG potassium channel blocker E4031 as a control. Following treatment, the beat period and field potential duration (FPD) were measured in each sample using the MEA.
# [5] = tested on: sorafenib treated cardiomyocytes; experiment: Sorafenib-induced contractile dysfunction; assay type: cell-based, human; settings: 5 μM sorafenib
# cardiomyocytes = experiment: Bortezomib-induced cell death; assay type: cell-based, human; settings: 100 μM myricetin
# [6] = tested on: Human iPSC-derived cardiomyocytes; experiment: DOX-induced DNA double strand break (γH2AX immunostaining); assay type: cell-based; settings: DOX 0.5 μM plus 100 μM agent, 48 hours
# [7] = tested on: Human iPSC-derived cardiomyocytes; experiment: Mitochondrial toxicity imaging (TMRM) after doxorubicin, 2 days; assay type: cell-based; settings: 1.25 μM doxorubicin + 79 μM myricetin vs 1.25 μM doxorubicin alone
# Protocol: Following treatment, the samples were incubated with a tetramethylrhodamine methyl ester (TMRM) dye to indicate mitochondrial health, and Hoechst 33342 to identify cell nuclei. Cells were imaged using the INCell Analyzer2200.
# patient = experiment: Patient treatment examples (echocardiogram / electrocardiogram); assay type: in vivo, human; settings: for QT prolongation (in words): doxorubicin (5 mg/mL) given with the protective agent
# Protocol: A patient, with a history of heart disease, is diagnosed with breast cancer. Due to an increased risk for heart failure, the patient is unable to receive the standard treatment regimen of doxorubicin, which is known to induce cardiotoxicity. Instead, the caregiver administers a co-formulation of doxorubicin (10 mg) and vitexin (100 mg). An echocardiogram is performed and blood flow rate is measured to determine if the therapy has a cardiotoxic effect in the patient.
# A patient is diagnosed with liver cancer. […] The patient presents with a 20 ms QT prolongation. […] The patient is able to continue receiving treatment over several weeks after which a tissue biopsy is performed to confirm the liver cancer has been eradicated.
# (§1) A patient is diagnosed with stage II lung cancer, and presents with bradycardia. Due to an increased risk for heart failure, the patient is unable to receive the standard treatment regimen of doxorubicin, which is known to affect cardiac contraction and induce bradycardia. Instead, the caregiver administers a co-formulation of doxorubicin (10 mg) and myricetin (100 mg). An electrocardiogram is used to monitor the patient's heart rate. […] The lung cancer is down-staged to stage 1, and the cancer is successfully removed with surgery.
# as §1, with “myricetin (100 mg) 24 hours before administration” for “a co-formulation”, “(10” for “(10 mg) and myricetin (100”
# [8] = tested on: topoisomerase IIβ protein in human iPSC-derived cardiomyocytes; experiment: TOPOIIβ protein level (immunostaining), 24 hours; assay type: cell-based; settings: 100 μM
# Protocol: To further distinguish molecular mechanisms of MYR from those of DEX and also to determine whether the inhibitory effects of MYR on TOPOII observed in the decatenation assays above is due to degradation of TOPOII proteins, human iPSC-derived cardiomyocytes were treated with DMSO, DEX (100 μM), or MYR (100 μM) for 24 hours, and immunostained with antibody against topoisomerase IIβ (BD Biosciences).
# Cells were imaged using INCell Analyzer2200 (GE) and […] protein levels were quantified. Student T-Test (unpaired, two-tailed) was used to determine the significance of the difference.
# TOPOIIβ = biological target: T1, TOPOIIβ (Homo sapiens, UniProt Q02880); experiment: kDNA decatenation assay; assay type: biochemical; settings: 37° C., 30 min, n=3; read-out: IC50 of TOPOIIβ enzyme activity
# T1 construct: purchased Inspiralis
# [9] = tested on: human induced pluripotent stem cell-derived cardiomyocytes (iPSC-CM)
# A549 cells (lung cancer) = experiment: Cell viability with doxorubicin (CellTiter-Glo); assay type: cell-based; settings: co-treated with increasing concentrations of doxorubicin, 72 hours
# Protocol: A549 cells (lung cancer) were cultured for 1 day before performing experiments. […] XLFit was used for curve fitting.
# [10] = tested on: MDA-MB-231 breast cancer cells; experiment: Cell viability with doxorubicin (CellTiter-Glo); assay type: cell-based; settings: co-treated with increasing concentrations of doxorubicin, 72 hours
# [11] = tested on: induced pluripotent stem cell-derived cardiomyocytes; experiment: Long term toxicity on electrophysiology (active electrodes, MEA); assay type: cell-based; settings: for number of active electrodes relative to the mock-treated sample (in words): various concentrations, at least 5 days
# Protocol: Samples were either mock-treated with 0.1% DMSO, or treated with various concentrations of the indicated drug. Following treatment, the percentage of active electrodes in each sample was measured for at least 5 days. Percentage of active electrodes was quantified and graphed in a time course.
# TOPOIIα = biological target: T2, TOPOIIα (Homo sapiens, UniProt P11388); experiment: kDNA decatenation assay; assay type: biochemical; settings: 37° C., 30 min, n=3; read-out: IC50 of TOPOIIα enzyme activity
# T2 construct: purchased Inspiralis
# [12] = agent alone, DOX at 24 and 48 hours
# T1 sequence (Q02880 whole entry): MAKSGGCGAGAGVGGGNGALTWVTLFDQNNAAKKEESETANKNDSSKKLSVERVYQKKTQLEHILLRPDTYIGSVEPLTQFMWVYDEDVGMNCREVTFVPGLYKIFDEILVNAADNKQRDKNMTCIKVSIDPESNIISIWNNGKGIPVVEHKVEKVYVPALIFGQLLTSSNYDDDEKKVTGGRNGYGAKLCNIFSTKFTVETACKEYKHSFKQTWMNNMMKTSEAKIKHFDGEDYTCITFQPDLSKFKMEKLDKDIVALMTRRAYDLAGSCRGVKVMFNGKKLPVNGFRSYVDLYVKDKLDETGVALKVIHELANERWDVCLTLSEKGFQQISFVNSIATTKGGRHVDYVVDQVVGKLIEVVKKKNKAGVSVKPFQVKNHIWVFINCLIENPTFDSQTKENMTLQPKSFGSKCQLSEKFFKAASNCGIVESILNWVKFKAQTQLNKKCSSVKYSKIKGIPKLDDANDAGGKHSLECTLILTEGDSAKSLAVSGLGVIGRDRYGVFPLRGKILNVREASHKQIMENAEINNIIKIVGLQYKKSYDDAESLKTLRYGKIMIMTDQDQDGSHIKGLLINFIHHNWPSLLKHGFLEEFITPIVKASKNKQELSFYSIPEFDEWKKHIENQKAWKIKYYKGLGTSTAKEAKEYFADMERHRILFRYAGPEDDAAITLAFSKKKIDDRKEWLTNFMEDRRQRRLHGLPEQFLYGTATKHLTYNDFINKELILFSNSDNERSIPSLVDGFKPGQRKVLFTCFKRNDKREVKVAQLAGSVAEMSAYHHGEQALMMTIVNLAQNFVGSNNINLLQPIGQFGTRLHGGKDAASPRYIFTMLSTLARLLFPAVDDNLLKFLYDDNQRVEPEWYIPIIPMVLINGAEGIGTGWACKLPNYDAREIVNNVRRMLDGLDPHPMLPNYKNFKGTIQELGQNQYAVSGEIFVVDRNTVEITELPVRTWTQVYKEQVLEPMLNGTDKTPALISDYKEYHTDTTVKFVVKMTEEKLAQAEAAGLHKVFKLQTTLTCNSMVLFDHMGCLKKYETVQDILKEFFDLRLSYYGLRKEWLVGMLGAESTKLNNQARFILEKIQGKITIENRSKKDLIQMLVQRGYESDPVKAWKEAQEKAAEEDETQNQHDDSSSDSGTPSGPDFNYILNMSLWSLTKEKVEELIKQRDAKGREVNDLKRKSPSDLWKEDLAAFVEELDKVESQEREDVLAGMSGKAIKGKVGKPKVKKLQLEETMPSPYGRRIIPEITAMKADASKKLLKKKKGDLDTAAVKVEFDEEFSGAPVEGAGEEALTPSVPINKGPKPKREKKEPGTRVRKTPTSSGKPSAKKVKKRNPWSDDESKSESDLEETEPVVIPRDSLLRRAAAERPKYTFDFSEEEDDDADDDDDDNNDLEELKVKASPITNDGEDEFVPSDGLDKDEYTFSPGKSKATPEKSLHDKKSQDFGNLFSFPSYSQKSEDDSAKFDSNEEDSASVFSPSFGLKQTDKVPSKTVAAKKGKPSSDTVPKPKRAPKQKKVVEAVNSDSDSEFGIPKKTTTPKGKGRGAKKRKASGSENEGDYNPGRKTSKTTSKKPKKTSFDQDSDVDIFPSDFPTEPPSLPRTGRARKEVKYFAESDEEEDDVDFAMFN
# T2 sequence (P11388 whole entry): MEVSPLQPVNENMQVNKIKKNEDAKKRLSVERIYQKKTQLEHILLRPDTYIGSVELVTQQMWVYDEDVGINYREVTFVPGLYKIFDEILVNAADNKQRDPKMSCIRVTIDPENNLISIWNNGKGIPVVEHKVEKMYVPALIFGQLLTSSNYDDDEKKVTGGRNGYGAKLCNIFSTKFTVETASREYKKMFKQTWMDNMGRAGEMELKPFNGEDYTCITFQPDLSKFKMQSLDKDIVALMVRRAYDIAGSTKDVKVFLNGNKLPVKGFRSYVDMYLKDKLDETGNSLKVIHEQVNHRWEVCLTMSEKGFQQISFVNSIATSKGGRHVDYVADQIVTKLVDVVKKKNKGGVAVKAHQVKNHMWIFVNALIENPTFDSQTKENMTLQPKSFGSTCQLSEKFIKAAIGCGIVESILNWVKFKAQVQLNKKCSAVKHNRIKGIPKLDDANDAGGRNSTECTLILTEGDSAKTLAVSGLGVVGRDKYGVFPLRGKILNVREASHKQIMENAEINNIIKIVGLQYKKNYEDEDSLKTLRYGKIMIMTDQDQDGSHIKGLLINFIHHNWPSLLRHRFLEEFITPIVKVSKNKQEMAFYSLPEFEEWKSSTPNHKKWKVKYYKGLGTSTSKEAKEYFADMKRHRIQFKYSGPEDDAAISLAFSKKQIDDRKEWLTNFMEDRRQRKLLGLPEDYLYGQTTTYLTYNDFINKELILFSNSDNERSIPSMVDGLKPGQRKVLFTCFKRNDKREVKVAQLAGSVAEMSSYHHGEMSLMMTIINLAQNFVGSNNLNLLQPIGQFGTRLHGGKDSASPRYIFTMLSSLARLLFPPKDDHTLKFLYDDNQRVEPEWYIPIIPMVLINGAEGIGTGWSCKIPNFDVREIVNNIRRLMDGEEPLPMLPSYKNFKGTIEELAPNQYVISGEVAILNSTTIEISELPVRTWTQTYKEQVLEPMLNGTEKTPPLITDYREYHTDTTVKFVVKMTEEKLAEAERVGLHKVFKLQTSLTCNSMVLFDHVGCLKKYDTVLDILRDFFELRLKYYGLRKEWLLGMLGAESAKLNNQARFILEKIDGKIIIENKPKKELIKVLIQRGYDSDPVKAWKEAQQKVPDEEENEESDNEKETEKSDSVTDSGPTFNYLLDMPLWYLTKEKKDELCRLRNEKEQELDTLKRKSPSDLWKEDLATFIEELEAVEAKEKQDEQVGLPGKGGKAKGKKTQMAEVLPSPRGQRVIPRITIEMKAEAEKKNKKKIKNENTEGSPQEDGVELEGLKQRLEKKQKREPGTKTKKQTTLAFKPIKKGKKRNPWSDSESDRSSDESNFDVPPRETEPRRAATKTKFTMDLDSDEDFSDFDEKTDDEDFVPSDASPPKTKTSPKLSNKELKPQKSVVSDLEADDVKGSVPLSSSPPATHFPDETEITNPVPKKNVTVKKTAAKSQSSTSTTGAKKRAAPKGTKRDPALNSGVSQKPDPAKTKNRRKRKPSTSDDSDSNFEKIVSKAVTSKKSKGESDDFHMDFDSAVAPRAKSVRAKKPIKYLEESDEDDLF
compound,measurement,setting,value
"COc1cccc2c1C(=O)c1c(O)c3c(c(O)c1C2=O)C[C@@](O)(C(=O)CO)C[C@@H]3O[C@H]1C[C@H](N)[C@H](O)[C@H](C)O1 [doxorubicin, reference compound]",CC50 at 72 h,in vitro,410 nM
same,decrease of ejection fraction (EF),C57BL/6 mice,19%
same,decrease of fractional shortening (FS),C57BL/6 mice,15%
same,cardiomyocyte contraction,[1]; DOX 0.5 μM,induced dysfunction in cardiomyocyte contraction
same,decrease in the number of active electrodes,[2]; 24 hours,~50%
same,"decrease in the number of active electrodes, relative to time zero",[2]; 30 hours,~95%
same,TOPOIIβ mRNA expression,TOPOIIβ mRNA expression; [12],significantly repressed
same,mitochondrial toxicity / protection (TMRM-positive cells),[3],increase in mitochondrial toxicity
same,TOPOIIα mRNA expression,"TOPOIIα mRNA expression; DOX alone, over time",slowly repressed
O=C1C[C@@H](c2ccc(O)cc2)Oc2cc(O)cc(O)c21 [naringenin],acute drug toxicity (beating),[4],beating cessation
same,"beat period or field potential duration, as compared to control samples",[4],no appreciable difference
CC(=O)N(O)CCCCCNC(=O)CCC(=O)N(O)CCCCCNC(=O)CCC(=O)N(O)CCCCCN [deferoxamine],"beat period or field potential duration, as compared to control samples",[4],no appreciable difference
"O=c1c(O)c(-c2cc(O)c(O)c(O)c2)oc2cc(O)cc(O)c12 [Compound 1, 3,5,7,3′,4′,5′-hexahydroxyflavone]",correction of cardiac dysfunction,[5],more than 80%
same,rescue of bortezomib-induced cardiotoxicity,cardiomyocytes,rescued bortezomib-induced cardiotoxicity
same,"correction of DOX-induced contractile dysfunction (beating, duration, peak height)","[1]; DOX 0.5 μM plus MYR 100 μM, compared to DEX 100 μM",significantly corrected
same,protection against DOX-induced DNA double strand break (γH2AX-positive cells),[6],significant protection
same,TMRM signal (protection against doxorubicin-induced mitochondrial toxicity),[7],greater TMRM signal
same,QT prolongation (in words),patient,no signs of QT prolongation
same,cardiac dysfunction in the patient,"patient; protective agent 100 mg co-formulated with, or 24 hours before, doxorubicin 10 mg",no indication of cardiac dysfunction
same,TOPOIIβ mRNA expression,TOPOIIβ mRNA expression; DOX plus myricetin,restored to a level close to normal
same,TOPOIIβ mRNA expression,TOPOIIβ mRNA expression; [12],did not have any effect
same,topoisomerase IIβ protein levels,[8],no effect
same,IC50,TOPOIIβ,2070 nM
same,TOPOIIα mRNA expression,TOPOIIα mRNA expression; DOX plus myricetin,further repressed
same,"number of total cells, as compared to mock-treated control",[9],no significant difference
"CC(=O)[C@]1(O)Cc2c(O)c3c(c(O)c2[C@@H](O[C@H]2C[C@H](N)[C@H](O)[C@H](C)O2)C1)C(=O)c1ccccc1C3=O [Idarubicin, idarubicin]",CC50 at 72 h,in vitro,590 nM
Nc1ccc(O)c(C(=O)O)c1 [mesalamine],percentage of cell death vs doxorubicin in the absence of a protective agent,A549 cells (lung cancer),no significant difference
same,percentage of cell death vs doxorubicin in the absence of a protective agent,[10],no significant difference
same,number of active electrodes relative to the mock-treated sample (in words),[11],no observable decrease
C[C@@H](CN1CC(=O)NC(=O)C1)N1CC(=O)NC(=O)C1 [dexrazoxane],percentage of cell death vs doxorubicin in the absence of a protective agent,A549 cells (lung cancer),no significant difference
same,topoisomerase IIβ protein levels,[8],marked disappearance of TOPOIIβ
same,IC50,TOPOIIα,52700 nM
same,IC50,TOPOIIβ,34400 nM
same,mitochondrial toxicity / protection (TMRM-positive cells),[3],increase in mitochondrial toxicity
same,percentage of cell death vs doxorubicin in the absence of a protective agent,[10],no significant difference
same,reduction in the number of active electrodes,"[11]; 500 dexrazoxane, about 2 days post-treatment",~50%
same,"beat period or field potential duration, as compared to control samples",[4],no appreciable difference
C[C@H](CCC(=O)O)[C@H]1CC[C@H]2[C@@H]3[C@H](O)C[C@@H]4C[C@H](O)CC[C@]4(C)[C@H]3CC[C@]12C [chenodeoxycholic acid],acute drug toxicity (beating),[4],beating cessation
same,"beat period or field potential duration, as compared to control samples",[4],no appreciable difference
Nc1c(Br)cc(Br)cc1CN[C@H]1CC[C@H](O)CC1 [ambroxol],percentage of cell death vs doxorubicin in the absence of a protective agent,A549 cells (lung cancer),no significant difference
same,percentage of cell death vs doxorubicin in the absence of a protective agent,[10],no significant difference
same,number of active electrodes relative to the mock-treated sample (in words),[11],no observable decrease
same,"beat period or field potential duration, as compared to control samples",[4],no appreciable difference
C[C@@H]1O[C@@H](Oc2c(-c3cc(O)c(O)c(O)c3)oc3cc(O)cc(O)c3c2=O)[C@H](O)[C@H](O)[C@H]1O [myricitrin],QT prolongation (in words),patient,no signs of QT prolongation
COc1cccc2c1C(=O)c1c(O)c3c(c(O)c1C2=O)C[C@@](O)(C(=O)CO)C[C@@H]3O[C@H]1C[C@H](N)[C@@H](O)[C@H](C)O1 [epirubicin],CC50 at 72 h,in vitro,490 nM
CC(=O)N[C@@H](CS)C(=O)O [N-acetyl cysteine],percentage of cell death vs doxorubicin in the absence of a protective agent,A549 cells (lung cancer),no significant difference
same,percentage of cell death vs doxorubicin in the absence of a protective agent,[10],no significant difference
same,"beat period or field potential duration, as compared to control samples",[4],no appreciable difference
